How the values were obtained:
Caco-2 cells = test: Cell viability, MTT assay, Caco-2; assay type: cell-based, human; conditions: for IC50: Homo sapiens
Description: (§1) A (4,5-dimethylthiazol-2-yl)-2,5-diphenyltetrazolium) MTT assay was used for the determination of the cytotoxic effects of three compounds (5, 6, and 7) in vitro (Figure 9). Hela, HT1080, Caco-2, and A549 cells were treated with various concentrations of the compounds employed in the current study (0, 1, 10, 50, 100, 500 µM) for 48 h.
(§2) Figure 9 Normalised percentage cell viability inhibition of compounds 5 and 7, measured by three independent MTT assays in A549 and Caco-2 cell lines and by three independent experiments with crystal violet staining in Hela and HT1080 cell lines. Cells were treated with different concentrations (from 1 and up to 500 µM) of the compounds for 48 h, * = first concentration significant reduction in cell viability in comparison to the control.
(§3) Human fibrosarcoma (HT1080), cervical cancer (Hela), colorectal cancer (Caco-2), and human lung cancer cell lines (A549) were purchased from […] (ECACC, Salisbury, UK). Cervical cancer cells (Hela) and fibrosarcoma cells (HT-1080) were maintained in a RPMI medium supplemented with 10% foetal bovine serum (FBS) and were expanded at 37 °C and 5% CO2. Caco-2 and A549 cells were grown in Dulbecco’s modified eagle medium (DMEM)-high glucose (biowest, Riverside, MO, USA) enriched with (10% v/v) (foetal bovine serum) FBS (biowest, Riverside, MO, USA) and antibiotics (100 U/mL penicillin, 100 μg mL streptomycin) (Lonza, Basel, Switzerland). Cells were maintained at 37 °C in an incubator with 5% CO2 atmosphere. Part of the experiments were carried out in CERRMA (Center of Excellence for Research in Regenerative Medicine and its Applications), Faculty of Medicine, Alexandria University.
(§4) The cell viability of A549 and Caco-2 cells was measured using MTT assays. Cells were incubated for 48 h in triplicates with the compounds of interest. […] Cells were seeded in 96-well plates at a density of 5 × 10^3 cells/well and were maintained in complete media. After adherence for 48 h, cells were treated with different concentrations of newly synthesized compounds ranging from […]. The plates were incubated at 5% CO2 and 37 °C. After 48 h, the medium was discarded, and cells were incubated with 100 μL MTT (Serva, Heidelberg, Germany) solution (0.5 mg/mL) for 3 h at 5% CO2 and 37 °C. Finally, the reagent was discarded and replaced with 100 μL DMSO. The optical density was measured at a wavelength of 570 nm (Tecan, Infinite F50, Magellan reader control and data analysis software, Mennedov, Switzerland). The percentage cell viability data were obtained by normalization of the optical density (OD) values for all groups to the OD of the control group.

A549 cells [1] = test: Cell viability, MTT assay, A549; assay type: cell-based, human; conditions: for first concentration with significant reduction in cell viability / IC50: A549, 48 h; for first concentration with significant reduction in cell viability: versus control; for IC50: Homo sapiens
Description: as §1, §2, §3, §4

male albino rats = test: In vivo toxicity evaluation: serum hepatic and renal biochemical parameters in rats; design: species or system rat; conditions: 20 mg/kg/day orally twice weekly for 6 weeks; for ALP / ALT / AST / Albumin / Bilirubin / Cholesterol / Triglyceride: rat serum; for Overall in vivo toxicity assessment: rats, versus healthy control group
Excerpt: Before the assessment of the anticancer activity of the compounds, in the present study, we examined their toxicity in vivo on normal tissues.
Male albino rats (150 g average weight) were purchased from the animal house of the Institute of Graduate Studies and Research, Alexandria University, Egypt. The animals were housed under standardized environmental conditions, fed with a standard diet and water, and left to acclimate to the environment for one week prior to inclusion in the experiment. All of the animal experiments were conducted in accordance with the guidelines for the care and use of laboratory animals of the National Institutes of Health (NIH 1985). The experimental procedures employed were ethically reviewed and approved by the Institutional Animal Care and Use Committee (IACUC) of Alexandria University (Ethical approval number of the study: AU14-200922-1-8A) and “declaration of Helsinki”. Four groups of rats were administered 20 mg/kg/day of compounds 5, 6, and 7 orally twice weekly for 6 weeks. Liver enzymes and other liver biomarkers together with creatinine and urea were measured (Table 1).
The collected blood was allowed to clot, the serum was separated at 2000× g, and the biochemical markers of hepatic damage, including serum ALT, AST [33], ALP [34], albumin [35], total bilirubin [36], TG [37], urea, creatinine, and total cholesterol, were estimated according to previously reported methods. These parameters were determined using available commercial kits (ARE) following the instructions of the manufacturer.

HT1080 cells = test: Cell viability, crystal violet staining, HT1080; assay type: cell-based, human; conditions: for first concentration with significant reduction in cell viability / IC50: HT1080, 48 h; for first concentration with significant reduction in cell viability: versus control; for IC50: Homo sapiens, HT-1080
Description: as §1, §2, §3
(§5) Cervical Hela and HT-1080 cells (2 × 10^4 per well) were seeded in 96-well tissue culture plates in 100 μL cell culture medium. Cells were incubated for 48 h in triplicates with the compounds of interest. The cytotoxic effect was assessed by crystal violet staining and measured at 595 nm. To normalize cell viability values each plate included a triplicate of cells treated with DMSO, the vehicle of the compound to calculate 100% viable cells. At the same time, a triplicate of cells was simulated with a cytotoxic combination (200 ng/mL TNF, 200 ng/mL CD95L, 200 ng/mL TRAIL, 25 µg/mL CHX, 1% (w/v) sodium azide) to elucidate maximal cell death, and thus 0% viability. All other viability values were normalized depending on the averages of these triplicates and evaluated by the Graph Pad Prism 5 software (La Jolla, CA, USA).

Hela cells = test: Cell viability, crystal violet staining, Hela; assay type: cell-based, human; conditions: 48 h; for first concentration with significant reduction in cell viability: versus control; for IC50: Homo sapiens, HeLa
Description: as §1, §2, §3, §5

BCR-ABL tyrosine kinase = tested on: BCR-ABL tyrosine kinase; design: method as in earlier work; conditions: literature statement; cited from earlier work
[2] = tested on: Ki67 expression in A549 cells; test: Proliferation assay, Ki67 expression by flow cytometry; assay type: cell-based, human; conditions: A549, IC50 concentration, 48 h; control cells 85.61%
Description: (§6) Figure 10 (a) Apoptosis analysis in A549 cells following treatment of cells with compound 7 at IC50 concentration. Flowcytometry was conducted using Alexa Fluor 488 annexin V conjugate. […] (b) Western blot analysis showing cleaved caspase-3 protein expression level. […] (c) Proliferation analysis (Ki67) in A549 cells following treatment cells with compound 7 at IC50 concentration. The analysis was done using flow cytometry and the Ki-67 FITC antibody.
Ki67 expression was determined using a flow cytometry assay. […] The percentage of cells labelled using Ki67 antibody in the control cells was 85.61%, whereas those labelled with the same antibody following treatment with compound 7 was 68.06%.
For evaluating the proliferation status of cells, cells were plated in 6-well plates at a density of 2 × 10^4 cells per well for the cell proliferation assay. After incubation for 24 h, 70% confluency is reached.

[3] = tested on: cleaved caspase-3 protein; test: Western blot of cleaved caspase-3 protein expression; assay type: cell-based; conditions: IC50 concentration, versus untreated cells
Description: (§7) In order to exclude apoptotic effects as a mechanism for the observed anticancer activity of the compounds and according to the in silico results, induction of apoptosis by compound 7 was examined using an annexin V flow cytometry assay (Figure 10a).
as §6
A western blot assay was carried out to examine cleaved caspase-3 protein expression levels following the different treatments with different concentrations of the compound that were employed in the current study. Cells (5 × 10^5 cells/well) were seeded in 12-well plates and were induced the next day with the compounds of interest for 48 h. […] The proteins of interest were detected with a suitable primary antibody (Anti-Caspase-3, 17,19 kD, Rabbit polyclonal ≠ 9661, from Cell Signaling Technology, Beverly, MA, USA) and horseradish peroxidase conjugated secondary antibodies (Dako, Glostrup, Denmark and Cell Signaling Technology, Beverly, MA, USA).

A549 cells [4] = test: Apoptosis assay, annexin V flow cytometry; assay type: cell-based, human
Description: as §7, §6
For evaluating cell apoptosis, cells were plated in 6-well plates at a density of 2 × 10^4 cells per well. After incubation for 24 h, 70% confluency is reached. Cells were then labelled using the FITC Annexin V apoptosis detection kit I (BD Pharminogen, San Diego, CA, USA) according to manufacturer’s instructions (Cell Signaling Technology; Flow Cytometry, Methanol Permeabilization Protocol) and analysed by using BD FACS Calibur flow cytometry and Cell Quest™ software.

SMILES	IC50 (Caco-2 cells; Caco-2, 48 h)	first concentration with significant reduction in cell viability (A549 cells [1])	IC50 (A549 cells [1])	ALP (male albino rats)	ALT (male albino rats)	AST (male albino rats)	Albumin (male albino rats)	Bilirubin (male albino rats)	Cholesterol (male albino rats)	Triglyceride (male albino rats)	Overall in vivo toxicity assessment (male albino rats)	first concentration with significant reduction in cell viability (HT1080 cells)	IC50 (HT1080 cells)	first concentration with significant reduction in cell viability (Hela cells; Hela)	IC50 (Hela cells)	other results
COc1ccc(C=NNc2ncnc3c2cnn3-c2ccccc2)cc1 [Compound 5, 2-(4-Methoxybenzylidene)-1-(1-phenyl-1H-pyrazolo[3,4-d]pyrimidin-4-yl)hydrazine]	76.9 µM	50 µM	148 µM	2.1 ± 0.52 U/L	43 ± 5.2 U/L	102 ± 8.7 U/L	4.4 ± 0.37 g/dL	0.11 ± 0.12 mg/dL	71 ± 4.8 mg/dL	72 ± 8.6 mg/dL	safe compounds comparable to the healthy control group	50 µM	96.2 µM	50 µM	74.8 µM	–
COc1ccc(/C=N/Nc2ncnc3c2cnn3-c2ccccc2)cc1OC [Compound 6]	–	–	–	2 ± 0.12 U/L	44 ± 5.7 U/L	100 ± 9.8 U/L	4.6 ± 1.8 g/dL	0.12 ± 0.12 mg/dL	69 ± 7.8 mg/dL	75 ± 6.5 mg/dL	safe compounds comparable to the healthy control group	–	–	–	–	effect on cell viability (Caco-2 cells; Caco-2, up to 500 µM, 48 h, data not shown): did not show any significant decrease in the cell viability; effect on cell viability (A549 cells [1]; A549, up to 500 µM, 48 h, data not shown): did not show any significant decrease in the cell viability; inhibition of BCR-ABL tyrosine kinase (BCR-ABL tyrosine kinase): capable of inhibiting BCR-ABL tyrosine kinase; effect on cell viability (HT1080 cells; HT1080, up to 500 µM, 48 h, data not shown): did not show any significant decrease in the cell viability; effect on cell viability (Hela cells; Hela, up to 500 µM, data not shown): did not show any significant decrease in the cell viability
COc1cc(C=NNc2ncnc3c2cnn3-c2ccccc2)cc(OC)c1OC [Compound 7, 2-(3,4,5-Trimethoxybenzylidene)-1-(1-phenyl-1H-pyrazolo[3,4-d]pyrimidin4yl)hydrazine]	73.1 µM	1 µM	68.8 µM	1.8 ± 0.88 U/L	42 ± 7.2 U/L	103 ± 8.8 U/L	4.6 ± 1.1 g/dL	0.11 ± 0.32 mg/dL	71 ± 5.8 mg/dL	77 ± 7.5 mg/dL	safe compounds comparable to the healthy control group	25 µM	43.8 µM	12.5 µM	17.5 µM	first concentration with significant reduction in cell viability (Caco-2 cells; Caco-2, 48 h, versus control): 1 µM; percentage of cells labelled using Ki67 antibody [2]: 68.06%; change in cleaved caspase-3 protein expression level [3]: no significant change; effect on viability of cells through apoptosis (A549 cells [4]; A549, 24 h incubation, versus untreated group): no significant effect; percentage gating in the lower left quadrant (annexin V) (A549 cells [4]; A549, IC50 concentration, control untreated 97.8): 97.58%
